{
  "source": "patent US20230065562A1",
  "about": "“DUAL CONTROLS FOR THERAPEUTIC CELL ACTIVATION OR ELIMINATION” (Bellicum Pharmaceuticals, Inc., priority 2015, published 2023)",
  "key": {"[1]": {"tested_on": "cells", "assay": "AP1903 amount needed in vitro for effective signaling of cells", "assay_type": "cell-based", "procedure": "This equates to 16-160 μg/L or […] (1.6-160 μg/kg)."}, "[2]": {"tested_on": "human CD3+CD19+ T cells", "assay": "AP1903 dose-dependent elimination in vivo of iCasp9-transduced T cells", "parameters": "species or system immune deficient mice (NSG)", "conditions": "mouse", "procedure": "The Caspase-9 polypeptide has a dose-response curve in vivo, which could be used to eliminate a variable fraction of T cells expressing the Caspase-9 polypeptide.\nT cells were transduced with SFG-iCasp9-D330E-2A-ΔCD19 retrovirus and injected i.v. into immune deficient mice (NSG). […] After an additional 24 hours, mice were sacrificed and lymphocytes from the spleen (A) were isolated and analyzed by flow cytometry for the frequency of human CD3^+CD19^+ T cells."}, "[3]": {"tested_on": "293 cells", "assay": "SEAP assay: FRB-tagged CAR plus iCaspase-9 in 293 cells", "assay_type": "cell-based", "conditions": "iCaspase-9", "text": "FIGS. 6A and 6B provide the results of an assay of two-tiered activation of apoptosis.\nAs a proof of principal, two tandem FRB, domains were fused to either a 1st generation Her2-CAR or to a 1st generation CD19-CAR co-expressing inducible Caspase-9. 293 cells were transiently transfected with a constitutive reporter plasmid, SRα-SEAP, along with normalized levels of expression plasmids encoding Her2-CAR-FRB2, iCaspase-9, Her2-CAR-FRBl2+iCasp9, iC9-CAR(19).FRBl2 (coexpressing both CD19-CAR-FRBl2 and iCaspase9), or control vector. […] After overnight incubation with drugs, SEAP activity was determined. […] This dose-dependent decrease required the presence of both the FRB-tagged CAR and the FKBP-tagged Caspase-9. […] Moreover, on- or off-target-mediated CAR clustering should increase the sensitivity of killing primarily at the site of scFv engagement."}, "[4]": {"conditions": "cited from earlier work"}, "[5]": {"tested_on": "CD3+ΔCD19+ (iCasp9+) T cells", "assay": "CASPALLO phase 1 clinical trial: AP1903 in patients with GvHD after iCasp9+ T cells", "conditions": "human, in vivo"}, "[6]": {"target": "wt FRB (K2095 T2098 W2101) (Homo sapiens, UniProt P42345+P62942)", "sequence (P42345 2012-2144 limits assumed)": "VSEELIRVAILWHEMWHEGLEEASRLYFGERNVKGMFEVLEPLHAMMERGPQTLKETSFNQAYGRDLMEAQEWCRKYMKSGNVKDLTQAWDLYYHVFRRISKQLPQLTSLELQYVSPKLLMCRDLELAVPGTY", "sequence (P62942 2-108 limits assumed)": "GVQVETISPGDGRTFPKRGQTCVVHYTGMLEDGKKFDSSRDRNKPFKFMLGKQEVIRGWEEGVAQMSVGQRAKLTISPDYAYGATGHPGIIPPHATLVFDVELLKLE", "conditions": "cited from earlier work"}, "[7]": {"target": "FRB-PLF (Homo sapiens, UniProt P42345+P62942, K2095P/T2098L/W2101F)", "sequence (P42345 2012-2144 K2095P/T2098L/W2101F)": "as the sequence (P42345 2012-2144 limits assumed) above, with K84P, T87L, W90F counted along it", "sequence (P62942 2-108)": "as the sequence (P62942 2-108 limits assumed) above", "conditions": "cited from earlier work"}, "[8]": {"target": "FRBL (Homo sapiens, UniProt P42345+P62942, T2098L)", "sequence (P42345 2012-2144 T2098L limits assumed)": "as the sequence (P42345 2012-2144 limits assumed) above, with T87L counted along it", "sequence (P62942 2-108 limits assumed)": "as the sequence (P62942 2-108 limits assumed) above", "assay": "Rapalog binding to mutant FRB (FRBL/KLW) versus wild-type FRB"}, "[9]": {"tested_on": "NF-κB", "assay": "NF-κB SeAP reporter assay of inducible MyD88/CD40 activity", "assay_type": "cell-based", "protocol": "293T cells were transfected with 1 μg of reporter construct NF-κB SeAP and 4 μg of the iMC+CARζ construct pBP0774 or the MC-rap-CAR construct pBP1440 using the GeneJuice protocol (Novagen). […] After 24 hours of further incubation SeAP activity was determined from cell supernatants.\nHEK 293T cells (1.5×10^5) were seeded on a 100-mm tissue culture dish in 10 mL DMEM4500, supplemented with glutamine, penicillin/streptomycin and 10% fetal calf serum. After 16-30 hours incubation, cells were transfected using Novagen's GeneJuice® protocol. Briefly, for each transfection, 0.5 mL OptiMEM was pipetted into a 1.5-mL microcentrifuge tube and 15 μL GeneJuice reagent added followed by 5 sec. vortexing. Samples were rested 5 minutes to settle the GeneJuice suspension. DNA (5 μg total) was added to each tube and mixed by pipetting up and down four times. Samples were allowed to rest for 5 minutes for GeneJuice-DNA complex formation and the suspension added dropwise to one dish of 293T cells. A typical transfection contains 1 μg NFkB-SEAP (5), 4 μg iMC+CARζ(pBP0774) or 4 μg MC-Rap-CAR (pBP1440) (1).\n24 hours following transfection (4.1), 293T cells were split to 96-well plates and incubated with dilutions of dimerizing drugs. Briefly, 100 μL media was added to each well of a 96-well flat-bottom plate. Drugs were diluted in tubes to a concentration 4× the top concentration in the gradient to be place on the plate. […] 100 μL from each drug-containing well was then transferred to the adjacent well and the cycle repeated 10 times to produce a serial two-fold step gradient. The last wells were untreated and serve as a control for basal reporter activity. Transfected 293 cells were then trypsinized, washed with complete media, suspended in media and 100 μL aliquoted to each well containing drug (or no drug). Cells were incubated 24 hours.\n24 hours after drug stimulation, 96-well plates were wrapped to prevent evaporation and incubated at 65° C. for 2 hours to inactivate endogenous and serum phosphatases while the heat-stable SeAP reporter remains (3, 12, 14). 100 μL samples from each well were loaded into individual wells of a 96-well assay plate with black sides. Samples were incubated with 0.5 mM 4-methylumbelliferyl phosphate (4-MUP) in 0.5 M diethanolamine at pH 10.0 for 4 to 16 hours. Phosphatase activity was measured by fluorescence with excitation at 355 nm and emission at 460 nm. Data was transferred to a Microsoft Excel spreadsheet for tabulation and graphed with GraphPad Prism."}, "[10]": {"tested_on": "transduced T cells (human PBMCs)", "assay": "IL-6 ELISA as indicator of MC activity in transduced T cells", "assay_type": "cell-based", "conditions": "pBP1440, 24 hours"}, "[11]": {"tested_on": "transduced T cells", "assay": "T cell caspase assay (IncuCyte, caspase 3/7 green reagent)", "assay_type": "cell-based, human", "conditions": "over 100 fold above the level used to activate MC-rap", "procedure": "To enable detection of apoptosis using the IncuCyte instrument, 2 μM of IncuCyte™ Kinetic Caspase-3/7 Apoptosis reagent (Essen Bioscience, 4440) were add to each well to reach a total volume of 200 μl. The plates were centrifuged for 5 min at 400×g and placed inside the IncuCyte (Dual Color Model 4459) to monitor green fluorescence every 2-3 hours for a total of 48 hours at 10× objective. Image analysis was performed using the “Tcells_caspreagent_phase_green_10×_MLD” processing definition. The “Total Green Object Integrated Intensity” metric is used to quantify caspase activation. Each condition was performed in duplicates and each well was imaged at 4 different locations.\nTo enable detection of apoptosis using the IncuCyte instrument, 2 μM of IncuCyte™ Kinetic Caspase-3/7 Apoptosis reagent (Essen Bioscience, 4440) was added to each well to reach a total volume of 200 μl. The plates were centrifuged for 5 min at 400×g and placed inside the IncuCyte (Dual Color Model 4459) to monitor green fluorescence every 2-3 hours for a total of 48 hours at 10× objective. Image analysis was performed using the “Tcells_caspreagent_phase_green_10×_MLD” processing definition. The “Total Green Object Integrated Intensity” metric and the “Phase Object Confluence (Percent)” were used to quantify caspase activation. Each condition was performed in duplicate and each well was imaged at 4 different locations."}, "[12]": {"tested_on": "HPAC PSCA+ tumor cells", "assay": "T cell anti-tumor assay with HPAC-RFP cells (IncuCyte, ELISA)", "assay_type": "cell-based, human", "conditions": "2 nM, E:T 1:30", "procedure": "PBMCs from donor 920 were activated and co-transduced with GFP-Ffluc and iMC+CARζ-T (189), i9+CARζ+MC (873), or FwtFRBC9/MC.FvFv (1308)-encoding vectors. […] (A & B) Two days post-seeding, culture supernatants were analyzed for IL-2, IL-6, and IFN-γ production by ELISA. […] Numbers of HPAC-RFP and T cell-GFP at the E:T 1:2 ratio was analyzed using the basic analyzer software for the IncuCyte at day 7 (Ci) and day 8 with 0 nM suicide drug (Cii) and 10 nM suicide drug (Ciii). Similar analysis was also performed at the 1:5 E:T ratio (D). (Note: the y-axis in Ci and Di are at log-scale).\nThe HPAC PSCA^+ tumor cells were stably labeled with nuclear-localized RFP protein using the NucLight™ Red Lentivirus Reagent (Essen Bioscience, 4625). To set up the coculture, 4000 HPAC-RFP cells were seeded per well of 96-well plates in 100 μl of CTL medium without IL-2 for at least 4 hours to allow tumor cells to adhere. After transduction with the appropriate retrovirus and allowed to rest for at least 7 days in culture, T were seeded according to various E:T ratios to the HPAC-RFP-containing 96-well plates. […] Each plate was set up in duplicates, one plate to monitor with the IncuCyte cell imaging system and one plate for supernatant collection for ELISA assay on day 2. The plates were centrifuged for 5 min at 400×g and placed inside the IncuCyte (Essen Bioscience, Dual Color Model 4459) to monitor red fluorescence (and green fluorescence if T cells were labeled with GFP-Ffluc) every 2-3 hours for a total of 7 days at 10× objective. Image analysis was performed using the “HPAC-RFP_TcellsGFP_10×_MLD” processing definition. On day 7, HPAC-RFP cells were analyzed using the “Red Object Count (1/well)” metric. […] On day 8, Tcell-GFP cells were analyzed using the “Total Green Object Integrated Intensity” metric. Each condition was performed at least in duplicates and each well was imaged at 4 different locations."}, "[13]": {"tested_on": "Raji-GFP cells", "assay": "Raji-GFP coculture with CD19 CAR-T cells (flow cytometry)", "assay_type": "cell-based, human", "conditions": "2 nM, E:T 1:5, seven days", "protocol": "After seven days of incubation the live cells were analyzed for the proportion of GFP labeled tumor cells (left) and for the proportion of total T cells (CD3^+, right) and transduced CAR-T cells (CD34, not shown).\nRaji cells (ATCC) labeled by stable expression of Green Fluorescent Protein (Raji-GFP) are a Burkitt's lymphoma cell line that express CD19 on the cell surface and are a target for an anti-CD19 CAR. 50000 Raji-GFP cells were seeded on a 24 well plate with 10000 CAR-T cells, a 1:5 E:T ratio. Media supernatant was taken at 48 hours for determination of cytokine release by activated CAR-T cells. The degree of tumor killing was determined at 7 days and 14 days by flow cytometry (Galeos, Beckman-Coulter) by the proportion of GFP labeled tumor cells and CD3 labeled T cells."}, "[14]": {"target": "FRB-KTF (Homo sapiens, UniProt P42345+P62942, W2101F)", "sequence (P42345 2012-2144 W2101F limits assumed)": "as the sequence (P42345 2012-2144 limits assumed) above, with W90F counted along it", "sequence (P62942 2-108 limits assumed)": "as the sequence (P62942 2-108 limits assumed) above", "conditions": "cited from earlier work"}},
  "data": [
    {"compound": "CC[C@H](C(=O)N1CCCC[C@H]1C(=O)O[C@H](CCc1ccc(OC)c(OC)c1)c1cccc(OCC(=O)NCCNC(=O)COc2cccc([C@@H](CCc3ccc(OC)c(OC)c3)OC(=O)[C@@H]3CCCCN3C(=O)[C@@H](CC)c3cc(OC)c(OC)c(OC)c3)c2)c1)c1cc(OC)c(OC)c(OC)c1", "note": "(relative stereo) [AP1903, 2-Piperidinecarboxylic acid, 1-[(2S)-1-oxo-2-(3,4,5-trimethoxyphenyl)butyl]-, 1,2-ethanediylbis[imino(2-oxo-2,1-ethanediyl)oxy-3,1-phenylene[(1R)-3-(3,4-dimethoxyphenyl)propylidene]] ester, [2S-[1(R*),2R*[S*[S*[1(R*),2R*]]]]]-(9C1)]", "values": [
      {"measurement": "amount needed in vitro for effective signaling of cells", "setting": "[1]", "value": "10 to 100", "unit": "nM"},
      {"measurement": "dose sufficient to eliminate most modified T cells in vivo", "setting": "[2]", "value": 0.5, "unit": "mg/kg"},
      {"measurement": "SEAP activity, % of normal levels", "setting": "[3]", "value": "about 20%"},
      {"measurement": "safety and tolerability in healthy volunteers", "setting": "[4]; 0.01-1.0 mg/kg, listed as API 903", "value": "No significant adverse effects"},
      {"measurement": "adverse event considered possibly related to AP1903", "setting": "[4]; 1 volunteer at 1.0 mg/kg", "value": "vasodilatation"},
      {"measurement": "plasma level, % of maximal concentration at 2 hours post-dose", "setting": "[4]; IV infusion over 2 hours", "value": "~7", "unit": "%"},
      {"measurement": "plasma level, % of maximal concentration at 10 hours post-dose", "setting": "[4]; IV infusion over 2 hours", "value": "~1", "unit": "%"},
      {"measurement": "serious adverse events", "setting": "[4]; Phase 1 study in volunteers", "value": "No serious adverse events"},
      {"measurement": "well-tolerated doses", "setting": "[4]; Phase 1 study", "value": "up to 1 mg/kg"},
      {"measurement": "further reduction of CD3+ΔCD19+ cells within 24 hours", "setting": "[5]", "value": "further log reduction"},
      {"measurement": "time to resolution of skin and liver aGvHD", "setting": "[5]", "value": "≤ 24", "unit": "h"}
    ]},
    {"compound": "CO[C@@H]1C[C@H](C[C@@H](C)[C@@H]2CC(=O)[C@H](C)/C=C(\\C)[C@@H](O)[C@@H](OC)C(=O)[C@H](C)C[C@H](C)/C=C/C=C/C=C(\\C)[C@H](OC(C)C)C[C@@H]3CC[C@@H](C)[C@@](O)(O3)C(=O)C(=O)N3CCCC[C@H]3C(=O)O2)CC[C@H]1O", "note": "[R-Isopropoxyrapamycin]", "values": [
      {"measurement": "EC50", "setting": "[6]", "value": "~300", "unit": "nM"},
      {"measurement": "EC50", "setting": "[7]", "value": "~8.5", "unit": "nM"}
    ]},
    {"compound": "C7-isobutyloxyrapamycin", "values": [
      {"measurement": "affinity for mutant FRB domain KLW", "setting": "[8]", "value": "subnanomolar affinity"},
      {"measurement": "binds FRBL at concentrations lower than wild-type FRB in mTOR", "setting": "[8]", "value": 20, "unit": "fold"},
      {"measurement": "EC50 / concentration stimulating NF-κB reporter activity via MC-Rap", "setting": "[9]; MC-rap-CAR construct pBP1440", "value": "subnanomolar"},
      {"measurement": "EC50", "setting": "[9]; iRMC (KLW, wild-type FKBP12, MyD88, CD40), read-out: EC50, NF-κB activity via iRMC", "value": "< 1", "unit": "nM"},
      {"measurement": "MC activity (secreted IL-6) in MC-rap-T cells", "setting": "[10]", "value": "strongly responsive"},
      {"measurement": "activation of apoptosis at high concentrations", "setting": "[11]", "value": "insufficient to activate apoptosis"},
      {"measurement": "tumor cell control by MC-rap containing CAR-T cells", "setting": "[12]", "value": "able to control tumor cells as effectively as rimiducid stimulated iMC"},
      {"measurement": "CAR-T cells with FwtFRBC9/MC.FvFv", "setting": "[13]", "value": "cause cell death"}
    ]},
    {"compound": "S-Butanesulfonamidorap [S-Butanesulfonamidorap (AP23050)]", "values": [
      {"measurement": "EC50", "setting": "[6]", "value": "~2.7", "unit": "nM"},
      {"measurement": "EC50", "setting": "[14]", "value": "> 200", "unit": "nM"}
    ]}
  ]
}
